Tests used:
[1] = Cmax in mouse at 7.1 mg/kg, po; format: ADME, organism-based; design: dose 7.1 mg/kg, route oral; settings: in vivo
[2] = Inhibition of peripheral BZD receptor at 10 uM by CEREP assay
[3] = target: Adenosine receptor A3 (Homo sapiens) (UniProt P0DMS8); experiment: Inhibition of human A3 receptor at 10 uM by CEREP assay
[4] = target: Vasoactive intestinal polypeptide receptor 1 (Homo sapiens) (UniProt P32241); experiment: Inhibition of human VIP1 receptor at 10 uM by CEREP assay
[5] = target: Nociceptin receptor (Homo sapiens) (UniProt P41146); experiment: Inhibition of human ORL1 receptor at 10 uM by CEREP assay
Chain of Nociceptin receptor (Homo sapiens) (P41146 whole entry): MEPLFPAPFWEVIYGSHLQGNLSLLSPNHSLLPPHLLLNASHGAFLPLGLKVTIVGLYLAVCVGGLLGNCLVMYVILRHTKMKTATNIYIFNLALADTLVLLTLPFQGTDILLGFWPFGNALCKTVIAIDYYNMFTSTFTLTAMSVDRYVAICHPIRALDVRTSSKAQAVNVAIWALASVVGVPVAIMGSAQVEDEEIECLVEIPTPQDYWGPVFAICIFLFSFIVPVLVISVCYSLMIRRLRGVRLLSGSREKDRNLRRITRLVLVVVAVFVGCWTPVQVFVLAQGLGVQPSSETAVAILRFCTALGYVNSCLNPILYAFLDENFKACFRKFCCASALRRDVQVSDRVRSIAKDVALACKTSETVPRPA

[6] = target: Sodium-dependent dopamine transporter (Homo sapiens) (UniProt Q01959); experiment: Inhibition of human DA transporter at 10 uM by CEREP assay
Chain of Sodium-dependent dopamine transporter (Homo sapiens) (Q01959 whole entry): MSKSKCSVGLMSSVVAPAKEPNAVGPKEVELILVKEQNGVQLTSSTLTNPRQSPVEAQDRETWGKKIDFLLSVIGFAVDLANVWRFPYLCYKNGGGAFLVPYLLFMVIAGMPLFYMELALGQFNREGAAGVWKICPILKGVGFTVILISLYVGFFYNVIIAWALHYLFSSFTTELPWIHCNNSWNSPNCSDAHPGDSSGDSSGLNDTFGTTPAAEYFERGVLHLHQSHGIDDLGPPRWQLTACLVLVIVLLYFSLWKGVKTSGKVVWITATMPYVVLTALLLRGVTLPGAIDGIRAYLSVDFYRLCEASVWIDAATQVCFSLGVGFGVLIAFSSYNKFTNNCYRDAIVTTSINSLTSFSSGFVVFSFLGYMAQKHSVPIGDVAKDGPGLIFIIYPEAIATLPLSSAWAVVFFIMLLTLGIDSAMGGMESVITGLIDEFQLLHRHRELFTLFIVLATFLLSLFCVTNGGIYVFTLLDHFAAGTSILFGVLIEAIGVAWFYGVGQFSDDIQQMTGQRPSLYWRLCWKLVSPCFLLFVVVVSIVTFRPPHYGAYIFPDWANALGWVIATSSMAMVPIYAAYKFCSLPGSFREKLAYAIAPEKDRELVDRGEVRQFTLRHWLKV

[7] = target: Type-2 angiotensin II receptor (Homo sapiens) (UniProt P50052); experiment: Inhibition of human AT2 receptor at 10 uM by CEREP assay
[8] = target: Estrogen receptor (Homo sapiens) (UniProt P03372); experiment: Inhibition of human estrogen receptor at 10 uM by CEREP assay
Chain of Estrogen receptor (Homo sapiens) (P03372 whole entry): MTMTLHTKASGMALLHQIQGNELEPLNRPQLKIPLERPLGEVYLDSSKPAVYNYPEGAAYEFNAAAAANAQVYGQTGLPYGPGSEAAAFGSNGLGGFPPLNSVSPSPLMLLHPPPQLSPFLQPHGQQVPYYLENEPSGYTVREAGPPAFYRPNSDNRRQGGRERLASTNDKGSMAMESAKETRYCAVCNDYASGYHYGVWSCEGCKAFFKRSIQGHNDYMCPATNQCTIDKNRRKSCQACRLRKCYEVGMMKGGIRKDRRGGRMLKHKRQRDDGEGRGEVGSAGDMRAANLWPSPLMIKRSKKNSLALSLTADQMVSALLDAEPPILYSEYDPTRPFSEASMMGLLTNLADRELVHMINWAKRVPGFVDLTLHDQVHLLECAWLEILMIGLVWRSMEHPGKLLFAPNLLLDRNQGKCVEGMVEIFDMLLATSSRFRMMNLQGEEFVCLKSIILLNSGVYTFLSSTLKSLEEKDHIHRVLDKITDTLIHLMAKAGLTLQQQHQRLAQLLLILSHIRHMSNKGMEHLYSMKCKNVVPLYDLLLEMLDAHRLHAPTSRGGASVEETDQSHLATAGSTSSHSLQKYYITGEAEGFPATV

[9] = Oral bioavailability in rat at 10 mg/kg; format: ADME, organism-based; settings: in vivo
[10] = target: cGMP-specific 3',5'-cyclic phosphodiesterase (Canis lupus familiaris) (UniProt O77746); experiment: Inhibition of human PDE5 at 10 uM by CEREP assay
[11] = target: Phenylethanolamine N-methyltransferase (Homo sapiens) (UniProt P11086); experiment: Inhibition of PNMT at 10 uM by CEREP assay
Chain of Phenylethanolamine N-methyltransferase (Homo sapiens) (P11086 whole entry): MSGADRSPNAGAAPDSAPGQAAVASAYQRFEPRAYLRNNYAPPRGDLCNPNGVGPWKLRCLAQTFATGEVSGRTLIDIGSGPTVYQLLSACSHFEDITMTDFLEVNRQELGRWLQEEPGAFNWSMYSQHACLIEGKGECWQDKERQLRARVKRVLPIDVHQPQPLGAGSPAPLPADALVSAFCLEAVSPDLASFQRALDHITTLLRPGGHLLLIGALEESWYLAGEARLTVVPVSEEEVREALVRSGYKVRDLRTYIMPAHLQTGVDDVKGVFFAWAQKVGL

[12] = target: Calcitonin gene-related peptide type 1 receptor (Homo sapiens) (UniProt Q16602); experiment: Inhibition of human CGRP receptor at 10 uM by CEREP assay
[13] = Inhibition of Adenylyl cyclase at 10 uM by CEREP assay
[14] = target: Sodium-dependent serotonin transporter (Homo sapiens) (UniProt P31645); experiment: Inhibition of human 5-HT transporter at 10 uM by CEREP assay
[15] = Cmax in rat at 10 mg/kg, po; format: ADME, organism-based; design: dose 10 mg/kg, route oral; settings: in vivo
[16] = Oral bioavailability in mouse at 7.1 mg/kg; format: ADME, organism-based; settings: in vivo
[17] = target: Neuromedin-K receptor (Homo sapiens) (UniProt P29371); experiment: Inhibition of human Nk3 receptor at 10 uM by CEREP assay
Chain of Neuromedin-K receptor (Homo sapiens) (P29371 whole entry): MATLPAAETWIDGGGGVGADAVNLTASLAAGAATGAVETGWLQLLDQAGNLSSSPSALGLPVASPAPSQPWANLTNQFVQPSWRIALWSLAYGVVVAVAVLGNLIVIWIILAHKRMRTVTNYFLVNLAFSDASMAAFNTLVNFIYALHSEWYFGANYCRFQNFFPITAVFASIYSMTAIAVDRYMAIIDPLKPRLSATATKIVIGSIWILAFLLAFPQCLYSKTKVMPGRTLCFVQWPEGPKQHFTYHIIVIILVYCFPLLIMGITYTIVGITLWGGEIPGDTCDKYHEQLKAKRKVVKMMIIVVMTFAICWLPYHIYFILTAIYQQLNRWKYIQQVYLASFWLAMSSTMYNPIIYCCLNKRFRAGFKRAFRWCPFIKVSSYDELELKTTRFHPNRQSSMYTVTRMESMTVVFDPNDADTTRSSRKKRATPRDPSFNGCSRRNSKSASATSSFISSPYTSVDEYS

[18] = target: Muscarinic acetylcholine receptor M5 (Homo sapiens) (UniProt P08912); experiment: Inhibition of human M5 receptor at 10 uM by CEREP assay
Chain of Muscarinic acetylcholine receptor M5 (Homo sapiens) (P08912 whole entry): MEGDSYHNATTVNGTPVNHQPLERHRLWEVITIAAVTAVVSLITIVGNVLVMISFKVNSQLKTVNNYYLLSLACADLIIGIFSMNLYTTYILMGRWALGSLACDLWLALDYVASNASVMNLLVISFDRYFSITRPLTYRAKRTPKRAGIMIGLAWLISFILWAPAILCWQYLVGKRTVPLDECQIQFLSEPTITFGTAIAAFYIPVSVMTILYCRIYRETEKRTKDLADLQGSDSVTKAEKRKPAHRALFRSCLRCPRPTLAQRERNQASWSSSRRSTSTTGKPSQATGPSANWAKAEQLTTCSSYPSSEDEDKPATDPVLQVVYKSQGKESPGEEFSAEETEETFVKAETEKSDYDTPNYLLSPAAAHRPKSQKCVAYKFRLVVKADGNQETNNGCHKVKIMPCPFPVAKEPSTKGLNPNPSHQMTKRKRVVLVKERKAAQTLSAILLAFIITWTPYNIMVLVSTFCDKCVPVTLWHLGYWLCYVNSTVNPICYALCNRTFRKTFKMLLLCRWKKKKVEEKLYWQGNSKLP

[19] = target: Muscarinic acetylcholine receptor M2 (Homo sapiens) (UniProt P08172); experiment: Inhibition of human M2 receptor at 10 uM by CEREP assay
Chain of Muscarinic acetylcholine receptor M2 (Homo sapiens) (P08172 whole entry): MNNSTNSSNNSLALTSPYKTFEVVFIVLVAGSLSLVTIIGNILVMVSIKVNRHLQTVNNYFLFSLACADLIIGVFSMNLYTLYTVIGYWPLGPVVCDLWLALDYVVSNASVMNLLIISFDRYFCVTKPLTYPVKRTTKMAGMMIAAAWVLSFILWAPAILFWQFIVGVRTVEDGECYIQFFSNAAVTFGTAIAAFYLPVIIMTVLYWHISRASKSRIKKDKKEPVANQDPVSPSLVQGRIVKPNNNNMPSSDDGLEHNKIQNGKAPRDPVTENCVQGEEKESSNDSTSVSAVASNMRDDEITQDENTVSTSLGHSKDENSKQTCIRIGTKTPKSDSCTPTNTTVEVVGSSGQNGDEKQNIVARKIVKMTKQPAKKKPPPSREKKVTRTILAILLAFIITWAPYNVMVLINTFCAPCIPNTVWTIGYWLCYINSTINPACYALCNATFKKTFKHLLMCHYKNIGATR

Homo sapiens = organism: Homo sapiens; experiment: Inhibition of human I1 receptor at 10 uM by CEREP assay
[20] = target: Muscarinic acetylcholine receptor M1 (Homo sapiens) (UniProt P11229); experiment: Inhibition of human M1 receptor at 10 uM by CEREP assay
Chain of Muscarinic acetylcholine receptor M1 (Homo sapiens) (P11229 whole entry): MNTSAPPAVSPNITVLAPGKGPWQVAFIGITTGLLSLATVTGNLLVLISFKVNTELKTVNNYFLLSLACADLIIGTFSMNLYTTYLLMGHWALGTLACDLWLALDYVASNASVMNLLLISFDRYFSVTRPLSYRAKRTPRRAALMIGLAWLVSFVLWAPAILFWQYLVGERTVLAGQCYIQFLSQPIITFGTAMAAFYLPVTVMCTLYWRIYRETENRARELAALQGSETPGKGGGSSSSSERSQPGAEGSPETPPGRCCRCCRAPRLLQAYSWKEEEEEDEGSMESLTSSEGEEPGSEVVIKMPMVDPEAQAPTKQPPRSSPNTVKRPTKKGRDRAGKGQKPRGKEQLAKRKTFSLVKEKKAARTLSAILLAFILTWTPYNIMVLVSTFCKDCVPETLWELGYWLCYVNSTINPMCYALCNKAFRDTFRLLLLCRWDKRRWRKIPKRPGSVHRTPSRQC

[21] = target: Galanin receptor type 2 (Homo sapiens) (UniProt O43603); experiment: Inhibition of human GAL2 receptor at 10 uM by CEREP assay
Chain of Galanin receptor type 2 (Homo sapiens) (O43603 whole entry): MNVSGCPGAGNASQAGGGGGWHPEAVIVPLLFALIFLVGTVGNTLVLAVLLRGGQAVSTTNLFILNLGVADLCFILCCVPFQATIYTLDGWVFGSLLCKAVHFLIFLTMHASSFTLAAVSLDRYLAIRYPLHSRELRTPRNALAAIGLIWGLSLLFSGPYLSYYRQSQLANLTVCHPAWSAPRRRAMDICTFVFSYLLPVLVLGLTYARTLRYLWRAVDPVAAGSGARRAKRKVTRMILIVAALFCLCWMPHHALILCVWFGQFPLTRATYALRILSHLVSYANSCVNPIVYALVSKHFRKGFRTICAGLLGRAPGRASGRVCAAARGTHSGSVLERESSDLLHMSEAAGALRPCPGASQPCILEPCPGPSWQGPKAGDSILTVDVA

[22] = target: Cysteinyl leukotriene receptor 1 (Homo sapiens) (UniProt Q9Y271); experiment: Inhibition of human LTD4 receptor at 10 uM by CEREP assay
[23] = Inhibition of tyrosine hydroxylase at 10 uM by CEREP assay
[24] = target: 5-hydroxytryptamine receptor 2A (Homo sapiens) (UniProt P28223); experiment: Inhibition of human 5-HT2A receptor at 10 uM by CEREP assay
[25] = Inhibition of L-type Ca2+ channel diltiazem site at 10 uM by CEREP assay
[26] = Inhibition of alpha 2 adrenergic receptor by CEREP assay
[27] = target: Adenosine receptor A2a (Homo sapiens) (UniProt P29274); experiment: Inhibition of human A2A receptor at 10 uM by CEREP assay
Chain of Adenosine receptor A2a (Homo sapiens) (P29274 whole entry): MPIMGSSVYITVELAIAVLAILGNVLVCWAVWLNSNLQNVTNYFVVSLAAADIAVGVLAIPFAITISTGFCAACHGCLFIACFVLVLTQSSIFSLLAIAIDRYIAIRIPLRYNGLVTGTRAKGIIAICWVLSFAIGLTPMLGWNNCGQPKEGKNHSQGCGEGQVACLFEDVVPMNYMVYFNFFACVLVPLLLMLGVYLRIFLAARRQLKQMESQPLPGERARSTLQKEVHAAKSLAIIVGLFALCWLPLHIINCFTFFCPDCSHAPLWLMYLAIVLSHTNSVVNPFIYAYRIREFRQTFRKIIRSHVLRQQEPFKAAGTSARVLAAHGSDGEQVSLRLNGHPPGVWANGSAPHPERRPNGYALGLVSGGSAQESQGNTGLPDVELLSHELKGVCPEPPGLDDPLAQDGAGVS

[28] = target: Cholecystokinin receptor type A (Homo sapiens) (UniProt P32238); experiment: Inhibition of human CCKA receptor at 10 uM by CEREP assay
[29] = target: MAO-A (amine oxidase [flavin-containing] A) (Homo sapiens, UniProt P21397); experiment: Inhibition of human MAO-A at 10 uM by CEREP assay
[30] = Inhibition of Na+/K+ ATPase at 10 uM by CEREP assay
[31] = target: B1 bradykinin receptor (Homo sapiens) (UniProt P46663); experiment: Inhibition of human B1 receptor at 10 uM by CEREP assay
Chain of B1 bradykinin receptor (Homo sapiens) (P46663 whole entry): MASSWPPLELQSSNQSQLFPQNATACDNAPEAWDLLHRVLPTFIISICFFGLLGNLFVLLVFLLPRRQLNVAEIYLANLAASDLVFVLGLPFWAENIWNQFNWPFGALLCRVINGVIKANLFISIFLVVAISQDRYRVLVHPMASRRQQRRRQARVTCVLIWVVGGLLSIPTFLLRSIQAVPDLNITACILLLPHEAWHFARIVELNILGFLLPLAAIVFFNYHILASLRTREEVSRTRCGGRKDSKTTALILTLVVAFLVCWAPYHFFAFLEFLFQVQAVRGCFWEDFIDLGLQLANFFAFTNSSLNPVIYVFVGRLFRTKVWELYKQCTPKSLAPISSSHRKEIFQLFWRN

[32] = target: 5-hydroxytryptamine receptor 4 (Homo sapiens) (UniProt Q13639); experiment: Inhibition of human 5-HT4 receptor at 10 uM by CEREP assay
[33] = Inhibition of PDE1 at 10 uM by CEREP assay
[34] = target: Platelet-activating factor receptor (Homo sapiens) (UniProt P25105); experiment: Inhibition of human PAF receptor at 10 uM by CEREP assay

## CCc1cccc(CC)c1Cc1ncc[nH]1
[1]
  Cmax: 300 ng/mL
[2]
  inhibition: 1%
[3]
  inhibition: 2%
[4]
  inhibition: 1%
[5]
  inhibition: -3%
[6]
  inhibition: 0%
[7]
  inhibition: -3%
[8]
  inhibition: -4%
[9]
  bioavailability: 17%
[10]
  inhibition: 5%
[11]
  inhibition: 22%
[12]
  inhibition: -5%
[13]
  inhibition: 2%
[14]
  inhibition: 4%
[15]
  Cmax: 100 ng/mL
[16]
  bioavailability: 21%
[17]
  inhibition: 10%
[18]
  inhibition: 8%
[19]
  inhibition: 36%
Homo sapiens
  inhibition: 78%
[20]
  inhibition: 24%
[21]
  inhibition: 4%
[22]
  inhibition: 1%
[23]
  inhibition: 1%
[24]
  inhibition: -5%
[25]
  inhibition: 34%
[26]
  Ki: 2.4 µM
[27]
  inhibition: -6%
[28]
  inhibition: 4%
[29]
  inhibition at 10 µM: -4%
[30]
  inhibition: -1%
[31]
  inhibition: -6%
[32]
  inhibition: 8%
[33]
  inhibition: 7%
[34]
  inhibition: -7%

Source: ChEMBL document CHEMBL2203234, “Optimisation of imidazole compounds as selective TAAR1 agonists: discovery of RO5073012” (Bioorg Med Chem Lett, 2012)
